{"source": "patent US20160340674A1", "about": "“Compositions and Methods to Inhibit EZH2 for the Treatment of Cardiovascular Diseases” (UNIVERSITY OF ROCHESTER, priority 2014, published 2016)", "system": "human umbilical vein endothelial cells (HUVECs)", "experiment": "KLF2 and eNOS gene expression in endothelial cells treated with GSK126 (RT-PCR and q-PCR)", "type": "cell-based", "description": "Experiments were designed to determine the effects of the EZH2 inhibitor GSK126 on expression of genes KLF2 and eNOS in endothelial cells. Histone methylation is an important epigenetic modification. Histone 3 lysine 27 (H3K27) is correlated with transcriptional repression. EZH2, a histone methytransferase, is critical for the epigenetic maintenance of the H3K27me3 repressive chromatin mark. To determine whether the alternation of histone methylation affects gene expression in endothelial cells, experiments were designed to assess the effects of an EZH2 inhibitor GSK126. […]", "key": {"[1]": {"settings": "0.02 μM GSK126 for different times, RT-PCR and q-PCR (FIG. 1)"}}}
{"molecule": "CC[C@H](C)n1cc(C)c2c(C(=O)NCc3c(C)cc(C)[nH]c3=O)cc(-c3ccc(N4CCNCC4)nc3)cc21", "note": "[GSK126, (S)-1-(sec-butyl)-N-((4,6-dimethyl-2-oxo-1,2-dihydropyridin-3-yl)methyl)-3-methyl-6-(6-(piperazin-1-yl)pyridin-3-yl)-1H-indole-4-carboxamide]", "values": [{"measurement": "level of KLF2 mRNA", "setting": "[1]", "value": "increased"}, {"measurement": "level of eNOS mRNA", "setting": "[1]", "value": "increased"}, {"measurement": "KLF2 expression", "setting": "24 hours at different concentrations (FIG. 2A)", "value": "dose-dependently increased"}, {"measurement": "eNOS expression", "setting": "24 hours at different concentrations (FIG. 2B)", "value": "dose-dependently increased"}]}
